Patent US4663323A, “Tetrazole derivatives, anti-ulcer composition containing the same and method for treating ulcers” (Otsuka Pharmaceutical Co., Ltd., priority 1984, dated 1987)
Where two headings read alike, the source gives them in different places.

Assays:
Acute Toxicity = details: rat, in vivo, po, male Wistar rats
Procedure: The test compounds were orally administered to male Wistar rats, and the half lethal dose (LD50) was measured.

Stress Ulcer = assay: Stress Ulcer; format: in vivo, male Wistar rats; details: oral, 1×10^-3 mole in 0.5% CMC, before restraint and water dipping at 23° C. for 7 hours
Procedure: After male Wistar rats weighing about 170 g was fasted for 24 hours, the rats were restrained in a stress cage and dipped in water bath at 23° C. till chest of the animals. After 7 hours, the rats were killed and the stomach was isolated. Into the isolated stomach 10% formalin (8 ml) was poured and settled. The stomach was cut open at the greater curvature, and the length of each ulcer on the membrane was measured. Sum of the length of all ulcers was shown as ulcer index (UI). The test compound was orally administered to the rats before restraint in a stress cage in the form of 0.5% CMC suspension in a concentration of 1×10^-3 mole. As a control, only the solvent (CMC solution) was administered likewise.
The inhibitory ratio (%) of stress ulcer of the test compounds was calculated by the following equation: [formula]
(§1) In the table, the inhibitory ratio (%) was evaluated as follows: […]

gastric juice secretion = assay: Shay rat pylorus ligation method (gastric juice secretion-inhibiting activity); format: in vivo, male Wistar rats; details: sc, 4 h, 100 mg/kg s.c., 30 min before pylorus ligation, measured 4 hours after ligation
Procedure: The pharmacological activities of the compouns (I) were tested by a Shay rat pylorus ligation method (cf. H. Shay et al: Gastroenterol., Vol. 5, page 43, 1945) which is the most popular method for testing of gastric juice secretion-inhibiting activity. The test was carried out by using male Wistar rats, weighing about 170 g and fasting for 24 hours.
Test compounds were administered 30 minutes before the pylorus ligation in a dose of 100 mg/kg in subcutaneous route, and the volume, total acidity and/or pepsin activity of the gastric juice were measured 4 hours after the ligation. As a control, a saline solution was administered instead of the test compound. The inhibitory ratio (%) of the test compounds were calculated when the inhibitory activities of the control were counted as zero (0).
as §1

[1] = test system: Acetic Acid-Induced Ulcer; assay: Acetic Acid-Induced Ulcer; format: in vivo, Male Wistar rats; details: oral, twice a day for 12 days
Procedure: Male Wistar rats were used. Under anestherization, the abdomen of rats were opened to expose stomach, and then 30% aqueous acetic acid (0.015 ml) was injected below serous membrane which was located at boundary area of true gastric gland and pyloric glands and thereafter the abdomen was closed, by which an experimental ulcer was induced.
The test compound was orally administered in the dose as shown in Table 3 in the form of 0.5% CMC suspension or solution twice a day for 12 days after the acetic acid-induced ulcer was produced. As a control, only the solvent (CMC solution) was administered likewise.
After the reproduced mucous membrane was removed around the ulcers, the open area of ulcers was measured with a micrometer, and the sum of ulcer area was shown as ulcer index (UI). The inhibitory ratio (%) of acetic acid-induced ulcer of the test compounds was calculated in the same manner as in Pharmacological Test 2.
as §1

[2] = test system: Indomethacin-Induced Ulcer; assay: Indomethacin-Induced Ulcer; format: in vivo, male Wistar rats; details: oral, 3×10^-4 mole in 0.5% CMC, 30 min before indomethacin 20 mg/kg s.c.
Procedure: After male Wistar rats weighing about 160 g was fasted for 24 hours, indomethacin was subcutaneously administered to the rats in a dose of 20 mg/kg in the form of a suspension in a mixture of 0.5% CMC and a small amount of Tween 80 (i.e. polyoxyethylene sorbitan monooleate). After 5 hours, the rats were killed and the stomach was isolated. Into the isolated stomach 10% formalin (8 ml) was poured and settled. The stomach was cut open at the greater curvature, and the length of each ulcer on the membrane was measured, based on which results the inhibitory ratio of the indomethacin-induced ulcer of the test compounds was calculated in the same manner as in Pharmacological Test 2. The test compound was orally administered to the rats in a concentration of 3×10^-4 mole in the form of 0.5% CMC suspension 30 minutes before the administration of indomethacin.
as §1

[3] = saline control = 0, read-out: Inhibitory ratio, Pepsin activity
[4] = saline control = 0, read-out: Inhibitory ratio, Total acidity
[5] = saline control = 0, read-out: Inhibitory ratio, Volume of gastric juice

Compound	LD50 (Acute Toxicity) [mg/kg]	Inhibitory ratio of stress ulcer (Stress Ulcer)	inhibition in vivo at 100 mg/kg (gastric juice secretion; [3]) [%]	inhibition in vivo at 100 mg/kg (gastric juice secretion; [4]) [%]	inhibition in vivo at 100 mg/kg (gastric juice secretion; [5]) [%]	Inhibitory ratio of acetic acid-induced ulcer ([1]; 20 mg/kg.day)	Inhibitory ratio of indomethacin-induced ulcer [2]	Inhibitory ratio of acetic acid-induced ulcer ([1]; 3 × 10^-5 mole/kg.day)
CCN(CC)C(=O)CCCSc1nnnn1C [Compound 1, N,N-Diethyl-4-(1-methyl-1,2,3,4-tetrazol-5-yl)thio-butyramide]	> 500	++ (more than 60%)	> 50	> 50	> 50	–	–	–
COc1ccc(CCNC(=O)CCCSc2nnnn2C)cc1OC [Compound 26, N-[2-(3,4-Dimethoxyphenyl)ethyl]-4-(1-methyl-1,2,3,4-tetrazol-5-yl)thio-butyramide]	–	–	< 10	10 to 50	> 50	+ (30 to less than 60%)	–	–
COC(=O)CCCSc1nnnn1C [Compound 37, Methyl 4-(1-methyl-1,2,3,4-tetrazol-5-yl)-thio-butyrate]	–	–	–	–	10 to 50	+ (30 to less than 60%)	–	–
CCNC(=O)CCCSCc1nnnn1CC [Compound 17, N-Ethyl-4-(1-ethyl-1,2,3,4-tetrazol-5-yl)-methylthio-butyramide]	> 500	+ (30 to less than 60%)	–	–	–	–	–	–
N,N-Dicyclohexyl-5-(1-methyl-1,2,3,4-tetrazol-5-yl)thio-butyramide [Compound 58]	–	–	–	–	–	+ (30 to less than 60%)	–	–
COc1ccc(NC(=O)CCCCc2nnnn2-c2ccccc2)cc1 [Compound 49, N-(4-Methoxyphenyl)-5-(1-phenyl-1,2,3,4-tetrazol-5-yl)valeramide]	–	+ (30 to less than 60%)	–	–	–	–	+ (30 to less than 60%)	–
CCN(C(=O)CCCSc1nnnn1C)C1CCCCC1 [Compound 2, N-Ethyl-N-cyclohexyl-4-(1-methyl-1,2,3,4-tetrazol-5-yl)thio-butyramide]	> 500	–	> 50	> 50	> 50	+ (30 to less than 60%)	–	–
CCCCN(C(=O)CCCSc1nnnn1C)C1CCCCC1 [Compound 55, N-Cyclohexyl-N-butyl-5-(1-methyl-1,2,3,4-tetrazol-5-yl)thio-butyramide]	–	–	–	–	–	+ (30 to less than 60%)	–	–
N-Ethyl-N-cyclooctyl-5-(1-methyl-1,2,3,4-tetrazol-5-yl)thio-butyramide [Compound 56]	–	–	–	–	–	+ (30 to less than 60%)	–	–
CCN(C(=O)CCCCSc1nnnn1C)C1CCCCC1 [Compound 3, N-Ethyl-N-cyclohexyl-5-(1-methyl-1,2,3,4-tetrazol-5-yl)thio-valeramide]	> 500	–	10 to 50	10 to 50	> 50	–	–	–
CCN(C(=O)CCCSc1nnnn1C)c1ccccc1 [Compound 9, N-Ethyl-N-phenyl-4-(1-methyl-1,2,3,4-tetrazol-5-yl)thio-butyramide]	> 500	–	–	–	–	+ (30 to less than 60%)	–	–
CCN(C(=O)CCCCc1nnnn1-c1ccccc1)C1CCCCC1 [Compound 4, N-Ethyl-N-cyclohexyl-5-(1-phenyl-1,2,3,4-tetrazol-5-yl)valeramide]	> 500	++ (more than 60%)	10 to 50	10 to 50	10 to 50	–	–	–
CCc1ccc(-n2nnnc2CSCCC(=O)N(CC)CC)cc1 [Compound 12, N,N-Diethyl-3-[1-(4-ethylphenyl)-1,2,3,4-tetrazol-5-yl]methylthio-propionamide]	> 500	–	10 to 50	10 to 50	10 to 50	–	–	–
CN(Cc1cccs1)C(=O)CCCSc1nnnn1C [Compound 39, N-Methyl-N-(2-thienylmethyl)-4-(1-methyl-1,2,3,4-tetrazol-5-yl)thio-butyramide]	–	–	–	–	> 50	–	+ (30 to less than 60%)	–
CCNC(=O)CCSCc1nnnn1-c1ccccc1 [Compound 16, N-Ethyl-3-(1-phenyl-1,2,3,4-tetrazol-5-yl)-methylthio-propionamide]	> 500	+ (30 to less than 60%)	–	–	–	–	–	–
COC1CCC(NC(=O)CCCSc2nnnn2C)CC1 (stereo not shown) [Compound 45, N-(4-Methoxycyclohexyl)-4-(1-methyl-1,2,3,4-tetrazol-5-yl)thio-butyramide]	–	–	–	–	10 to 50	–	++ (more than 60%)	–
CCN(C(=O)CCCc1nnnn1-c1ccccc1)C1CCCCC1 [Compound 46, N-Ethyl-N-cyclohexyl-4-(1-phenyl-1,2,3,4-tetrazol-5-yl)butyramide]	–	++ (more than 60%)	< 10	10 to 50	10 to 50	–	++ (more than 60%)	–
CCn1nnnc1CSCCC(N)=O [Compound 19, 3-(1-Ethyl-1,2,3,4-tetrazol-5-yl)methylthio-propionamide]	> 500	–	–	–	–	–	–	+ (30 to less than 60%)
CCCCNC(=O)CCCCc1nnnn1-c1ccccc1 [Compound 47, N-(n-Butyl)-5-(1-phenyl-1,2,3,4-tetrazol-5-yl)valeramide]	–	+ (30 to less than 60%)	–	–	–	–	+ (30 to less than 60%)	–
CN(C)c1ccc(NC(=O)CCCSc2nnnn2C)cc1 [Compound 7, N-[4-(N,N-dimethylamino)phenyl]-4-(1-methyl-1,2,3,4-tetrazol-5-yl)thio-butyramide]	> 500	++ (more than 60%)	10 to 50	10 to 50	> 50	–	–	–
CCN(C(=O)CCCSc1nnnn1C)C1CCCCC1O (stereo not shown) [Compound 8, N-Ethyl-N-(2-hydroxycyclohexyl)-4-(1-methyl-1,2,3,4-tetrazol-5-yl)thio-butyramide]	> 500	–	10 to 50	10 to 50	10 to 50	–	–	–
CN(C)C(=O)CCCSc1nnnn1C [Compound 28, N,N-Dimethyl-4-(1-methyl-1,2,3,4-tetrazol-5-yl)thio-butyramide]	–	–	10 to 50	> 50	> 50	+ (30 to less than 60%)	–	–
CCN(CC)C(=O)CCCCc1nnnn1C1CCCCC1 [Compound 5, N,N-Diethyl-5-(1-cyclohexyl-1,2,3,4-tetrazol-5-yl)valeramide]	> 500	–	10 to 50	10 to 50	10 to 50	–	–	–
